From patent publication US20200155609A1, “COMPOSITIONS AND METHODS OF MAKING EXPANDED HEMATOPOIETIC STEM CELLS USING PTEN INHIBITORS” (Transfusion Health LLC, priority 2017, published 2020)

Tests used:
[1] = system: Primary human CD34+ cells isolated from mobilized peripheral blood; assay: Relative expansive effect (relative cell number), mobilized peripheral blood CD34+ cells in StemSpan SFEM (Example 23); format: cell-based
Protocol: Mobilized peripheral blood was purchased from StemCell Technologies. The blood was mobilized using G-CSF from volunteer donors. Volunteers were administered a maximum of 10 ug/kg/day of granulocyte colony-stimulating factor (G-CSF) for 3-5 days prior to collection. Primary human CD34+ cells were isolated from mobilized peripheral blood leukapheresis samples using positive immunomagnetic separation techniques.
Isolated CD34+ cells were incubated in an in vitro culture media of StemSpan SFEM. When testing the substituted derivatives of 9,10-dihydrophenathrene (+Derivative conditions), two internal controls were used: a positive control (+SF conditions) and a baseline control (i.e, basic conditions (“cytokines only”)). The media components and concentrations used for the compounds tested are described in Table 8, above. The culture also included an antibiotic solution that includes penicillin, streptomycin, and amphotericin B to avoid contamination. Controls were included because the amount of expansion in samples obtained varies from individual to individual.
Cultures were incubated at 3% oxygen (controlled by nitrogen) and 5% CO2. […]
Table 10, below, summarizes the relative expansive effect of Compound 1.013 at the indicated concentration. […] Relative cell number is calculated as described in Example 22.

[2] = system: CD34+ cells isolated from donor non-mobilized peripheral blood (CD133+ and CD90+ cells); assay: Relative expansive effect (relative cell number) of SF1670 derivatives, non-mobilized peripheral blood CD34+ cells, cytokines with IL-6 (Example 22); format: cell-based, human
Protocol: CD34+ cells were isolated from donor peripheral blood as described in Example 20. Isolated CD34+ cells were incubated in an in vitro culture media of Alpha MEM without phenol red, 10% (v/v) heat inactivated fetal bovine serum (FBS). When testing the substituted derivatives of 9,10-dihydrophenathrene (+Derivative conditions), two internal controls were used: a positive control (+SF conditions) and a baseline control (i.e, basic conditions (“cytokines only”)). The media components and concentrations used for the compounds tested are described in Table 8. The culture also included an antibiotic solution that includes penicillin, streptomycin, and amphotericin B to avoid contamination. Controls were included because the amount of expansion in samples obtained varies from individual to individual.
(§1) Cultures were incubated at 3% oxygen (controlled by nitrogen) and 5% CO2.
After the indicated number of days one-half of the volume of the cell culture was removed for data analysis (flow cytometry using a BD FACS ARIA II). The culture volume was replenished with fresh media according to the conditions tested.
Separate experiments were performed for each compound tested (Compound 1.014-1.016).
Table 9, below, summarizes the relative expansive effect of Compound 1.014 to 1.016 (sample compounds) at the indicated concentration. The data in Table 9 is reported as the relative cell number. The relative cell number is the normalized value of cell counts after the indicated number of days in culture. It is calculated as shown below: […]

[3] = system: CD34+ cells isolated from donor non-mobilized peripheral blood (hematopoietic stem cells); assay: Culture of CD34+ cells from non-mobilized peripheral blood with SF1670 or SF1670 and ER50891, flow cytometry (Example 17); format: cell-based, human; settings: after 7 days in culture, SF1670 250 nM (ER50891 100 nM), compared with Base conditions
Protocol: CD34+ cells were isolated from donor peripheral blood. Whole blood was centrifuged at 1750×g (the speed of centriguation may vary) for 20 minutes. Plasma was drawn off using a pipette or syringe. Concentrated red blood cell (RBC) layer was drawn off with a pipette or syringe. Residual RBCs were lysed using standard RBC lysis protocols. White blood cell (WBC) layer was washed in PBS and spun down several times at 300 g for 7 minutes to remove platelets and some debris. Cells were pelleted and incubated with unlabeled CD64 antibody. Cells then undergo negative depletion using biotinylated CD2, CD3, CD4, CD5, CD8, CD11b, CD14, CD16, CD19, CD20, CD45RA, CD56, CD235 (in some examples CD15, CD25 and other lineage specific antibodies may also be used). Cells which bind these antibodies are depleted using streptavidin beads. The resultant progenitor enriched cell pool were cultured directly (residual mature cells and late progenitors will be killed off over time in culture) or cell pool can undergo a CD34 or CD133 positive selection to further enrich for the desired cells before culturing.
(§2) Isolated CD34+ cells were incubated in an in vitro culture media of Alpha MEM without phenol red, 10% (v/v) heat inactivated fetal bovine serum (FBS). Base Conditions, +SF Conditions, and +SF/+ER conditions further included the components described in Table 2. Each condition tested also included an antibiotic solution that includes penicillin, streptomycin, and amphotericin B to avoid contamination.
as §1
(§3) Small molecule components were added separately and fresh each time the media needs to be refreshed. Cytokines can be stored together. Media renewal should occur at least every few days.
(§4) On the days indicated one-half of the volume of the cell culture was removed for data analysis (flow cytometry using a BD FACS ARIA II). The culture volume was replenished with fresh media according to the conditions tested. The data reported accounts for the dilution factor introduced in this procedure.

[4] = system: hematopoietic stem cells derived from cord blood; assay: Culture of cord blood with SF1670, flow cytometry (Example 19); format: cell-based, human
Protocol: as §2, with “A frozen cord blood sample was thawed and gradually brought to room temperature. Thawed cord blood was” for “Isolated CD34+ cells were”, “Conditions and” for “Conditions,”, “Conditions” for “Conditions, and +SF/+ER conditions”, “4.” for “2.”
as §1, §3, §4

[5] = system: CD34+ cells isolated from donor non-mobilized peripheral blood; assay: Titration of SF1670 on CD34+ cells from non-mobilized peripheral blood, flow cytometry (Example 20); format: cell-based, human
Excerpt: CD34+ cells were isolated from donor peripheral blood. Standard ficoll paque layering was used to separate the buffy coat. Cells then undergo negative depletion using biotinylated CD2, CD3, CD4, CD5, CD8, CD1 Ib, CD14, CD16, CD19, CD20, CD45RA, CD56, CD235 (in some examples CD15, CD25 and other lineage specific antibodies may also be used). Cells which bind these antibodies are depleted using streptavidin beads. The depleted cell pool was sorted for CD34+ cells before being placed in cell culture.
as §2, with “(FBS) and” for “(FBS). Base Conditions,”, “conditions. +SF” for “Conditions, and +SF/+ER”, “conditions” for “conditions further”, “5. The culture” for “2. Each condition tested”
as §1, §3, §4

[6] = 5 days in culture, 0.25 μM sample compound
[7] = 7 days in culture, 2 μM sample compound
[8] = 7 days in culture, 1 μM sample compound

## O=C1C(=O)c2ccc(O)cc2-c2ccccc21 [Compound 1.013, 3-hydroxyphenanthrene-9,10-dione]
[1]; 7 days in culture, 1 μM sample compound, mobilized peripheral blood, StemSpan SFEM
  CD133 effect (relative expansive effect, relative cell number): +++ (0.55 ≤ x < 0.9)
[1]; number of cells per well after 7 days, FIG. 18
  expansive effect on HSCs in culture: positive expansive effect

## CC(C)(C)C(=O)Nc1ccc2c(c1)C(=O)C(=NO)c1ccccc1-2 [Compound 1.016, N-(9-(hydroxyimino)-10-oxo-9,10-dihydrophenanthren-2-yl)pivalamide]
[2]; [6]
  CD90 effect (relative expansive effect, relative cell number): ++ (0.2 ≤ x < 0.55)
  CD133 effect (relative expansive effect, relative cell number): ++ (0.2 ≤ x < 0.55)

## O=C(COCc1ccccc1)Nc1ccc2c(c1)C(=O)C(=O)c1ccccc1-2 [Compound 1.015, 2-(benzyloxy)-N-(9,10-dioxo-9,10-dihydrophenanthren-2-yl)acetamide]
[2]; [7]
  CD90 effect (relative expansive effect, relative cell number): +++++ (1.25 ≤ x)
  CD133 effect (relative expansive effect, relative cell number): +++ (0.55 ≤ x < 0.9)

## CC(C)(C)C(=O)Nc1ccc2c(c1)C(=O)C(=O)c1ccccc1-2 [SF1670]
[3]; FIG. 1A
  number of CD34+ cells: increased numbers
[3]; FIG. 1B
  number of CD133+ cells: increased numbers
[3]; FIG. 1C
  number of CD90+ cells: increased numbers
[4]; +SF conditions (SF1670 500 nM) vs Base conditions, FIG. 3B
  total number of CD34+ cells: increase
[4]; +SF conditions (SF1670 500 nM) vs Base conditions, FIG. 3C
  total number of CD133+ cells: increase
[4]; +SF conditions (SF1670 500 nM) vs Base conditions, FIG. 3D
  total number of CD90+ cells: increase
[4]; +SF conditions (SF1670 500 nM) vs Base conditions, FIG. 3E
  total number of CD38− cells: increase
[4]; SF1670 500 nM, after 16 days in culture, FIG. 4B
  fold increase in CD34+ cells from day 2: greater than 50 fold
[4]; SF1670 500 nM, after 16 days in culture, FIG. 4C
  fold increase in CD133+ cells from day 2: greater than 50 fold
[4]; SF1670 500 nM, after 16 days in culture, FIG. 4D
  fold increase in CD90+ cells from day 2: ~30 fold
[4]; SF1670 500 nM, after 16 days in culture, FIG. 4E
  fold increase in CD38− cells from day 2: ~5 fold
[5]; SF1670 125 nM, 250 nM and 500 nM, FIG. 5B-5E
  expansive effect on the enhancement of hematopoietic stem cells over the control condition (0 nM SF1670): at least some expansive effect
[5]; SF1670 1000 nM, FIG. 5A
  expansion of any cell type (total cells): very little expansion
[5]; SF1670 1000 nM, days 4 and 7, FIG. 5A-5E
  expansive effect: reduced expansive effect

## COCCOc1c(O)c2cc(NC(=O)C(C)(C)C)ccc2c2ccccc12 [Compound 1.014, N-(10-hydroxy-9-(2-methoxyethoxy)phenanthren-2-yl)pivalamide]
[2]; [8]
  CD90 effect (relative expansive effect, relative cell number): ++ (0.2 ≤ x < 0.55)
  CD133 effect (relative expansive effect, relative cell number): ++ (0.2 ≤ x < 0.55)
